According to the NIST ThermoML archive (doi:10.1016/j.jct.2016.06.004):

Tests used:
[1] = Ring tensiometer
[2] = xn = mol fraction of the nth substance listed; details: Ring tensiometer

C[S+](C)[O-] [dimethyl sulfoxide]
[1]
Details | surface tension liquid-gas [mN/m]
298.15 K | 42.43
308.15 K | 41.3
318.15 K | 40.17
328.15 K | 39.08

C[S+](C)[O-] [dimethyl sulfoxide] + CC(C)O
surface tension liquid-gas [mN/m], [2]
Details | 298.15 K | 308.15 K | 318.15 K | 328.15 K
x2 = 0 | 42.43 | 41.3 | 40.17 | 39.08
x2 = 0.044 | 39.17 | 38.58 | 37.9 | 36.91
x2 = 0.085 | 36.42 | 35.88 | 34.99 | 34.12
x2 = 0.157 | 33.83 | 32.83 | 32.05 | 31.15
x2 = 0.245 | 30.89 | 30.21 | 29.55 | 28.39
x2 = 0.338 | 28.56 | 27.7 | 27.02 | 26
x2 = 0.441 | 26.67 | 25.88 | 25.19 | 24.1
x2 = 0.537 | 25.15 | 24.46 | 23.87 | 22.79
x2 = 0.619 | 24.19 | 23.39 | 22.81 | 21.74
x2 = 0.676 | 23.19 | 22.84 | 22.06 | 21.08
x2 = 0.719 | 23.03 | 22.48 | 21.67 | 20.72
x2 = 0.751 | 22.84 | 22.21 | 21.43 | 20.45
x2 = 0.86 | 22 | 21.21 | 20.51 | 19.59

C[S+](C)[O-] [dimethyl sulfoxide] + CCO
surface tension liquid-gas [mN/m], [2]
Details | 298.15 K | 308.15 K | 318.15 K | 328.15 K
x2 = 0 | 42.43 | 41.3 | 40.17 | 39.08
x2 = 0.087 | 39.25 | 38.32 | 37.35 | 36.37
x2 = 0.174 | 36.69 | 35.75 | 34.88 | 33.99
x2 = 0.261 | 34.4 | 33.6 | 32.69 | 31.87
x2 = 0.348 | 32.29 | 31.5 | 30.73 | 29.99
x2 = 0.435 | 30.48 | 29.71 | 28.95 | 28.22
x2 = 0.522 | 28.84 | 28.08 | 27.33 | 26.61
x2 = 0.609 | 27.34 | 26.58 | 25.83 | 25.21
x2 = 0.696 | 26.04 | 25.22 | 24.44 | 23.64
x2 = 0.783 | 24.63 | 23.91 | 23.14 | 22.36
x2 = 0.87 | 23.4 | 22.7 | 21.91 | 21.07

C[S+](C)[O-] [dimethyl sulfoxide] + CO
surface tension liquid-gas [mN/m], [2]
Details | 298.15 K | 308.15 K | 318.15 K | 328.15 K
x2 = 0 | 42.43 | 41.3 | 40.17 | 39.08
x2 = 0.077 | 41.31 | 40.2 | 39.15 | 38.06
x2 = 0.154 | 40.03 | 38.95 | 37.91 | 36.84
x2 = 0.231 | 38.59 | 37.54 | 36.58 | 35.55
x2 = 0.308 | 37.1 | 36.16 | 35.2 | 34.25
x2 = 0.384 | 35.6 | 34.69 | 33.78 | 32.84
x2 = 0.462 | 34.07 | 33.18 | 32.31 | 31.45
x2 = 0.538 | 32.46 | 31.62 | 30.79 | 29.96
x2 = 0.615 | 30.84 | 30.03 | 29.22 | 28.41
x2 = 0.693 | 29.2 | 28.38 | 27.56 | 26.79
x2 = 0.769 | 27.5 | 26.69 | 25.84 | 24.96
x2 = 0.846 | 25.77 | 24.89 | 24.2 | 23.31
x2 = 0.9 | 24.56 | 23.67 | 22.88 | 21.94

CCO [ethanol]
[1]
Details | surface tension liquid-gas [mN/m]
298.15 K | 21.66
308.15 K | 21.01
318.15 K | 20.19
328.15 K | 19.23

CCO [ethanol] + C[S+](C)[O-]
[2], x1 = 1
Details | surface tension liquid-gas [mN/m]
298.15 K | 21.66
308.15 K | 21.01
318.15 K | 20.19
328.15 K | 19.23

CO [methanol]
[1]
Details | surface tension liquid-gas [mN/m]
298.15 K | 22.24
308.15 K | 21.41
318.15 K | 20.53
328.15 K | 19.54

CO [methanol] + C[S+](C)[O-]
[2], x1 = 1
Details | surface tension liquid-gas [mN/m]
298.15 K | 22.24
308.15 K | 21.41
318.15 K | 20.53
328.15 K | 19.54

CC(C)O [propan-2-ol]
[1]
Details | surface tension liquid-gas [mN/m]
298.15 K | 21.15
308.15 K | 20.29
318.15 K | 19.53
328.15 K | 18.51

CC(C)O [propan-2-ol] + C[S+](C)[O-]
[2], x1 = 1
Details | surface tension liquid-gas [mN/m]
298.15 K | 21.15
308.15 K | 20.29
318.15 K | 19.53
328.15 K | 18.51

O [water]
Details | surface tension liquid-gas [mN/m]
[1], 298.15 K | 72.05
